Among the data in ChEMBL document CHEMBL5727021, “Oxepan-2-yl-pyrazol-4-yl-heterocyclyl-carboxamide compounds and methods of use” (2018) are Ki values, retold here.

In the experiment the target is Serine/threonine-protein kinase pim-1 (Homo sapiens, UniProt P11309). The experiment can be described thus: Biological Assay: Determination of the Pim kinase activity of a Formula I compound is possible by a number of direct and indirect detection methods. Certain exemplary compounds described herein were assayed for their Pim kinase binding activity, including isoforms Pim-1, Pim-2, andPim-3, (Example 901) and in vitro activity against tumor cells (Example 902). The format is cell-based.

Broadly, the Ki is a measure of affinity in units of concentration, obtained from inhibition or displacement. High values mean a looser hold on the target, low ones a stronger hold on the target.

Chain of Serine/threonine-protein kinase pim-1 (P11309 whole entry, canonical isoform): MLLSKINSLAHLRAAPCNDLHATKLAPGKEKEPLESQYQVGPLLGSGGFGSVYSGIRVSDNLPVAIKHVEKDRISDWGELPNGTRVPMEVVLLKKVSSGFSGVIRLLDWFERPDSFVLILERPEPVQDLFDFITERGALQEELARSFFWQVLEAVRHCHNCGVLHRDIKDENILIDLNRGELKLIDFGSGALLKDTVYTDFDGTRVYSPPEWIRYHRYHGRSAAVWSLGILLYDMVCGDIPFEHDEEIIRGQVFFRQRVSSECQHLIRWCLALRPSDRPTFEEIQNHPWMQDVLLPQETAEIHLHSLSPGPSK

`N[C@@H]1CC[C@@H](c2c(NC(=O)c3csc(-c4c(F)cccc4F)n3)cnn2CC(F)F)OC[C@H]1F` registered a Ki of 0.047 nM.
